Reference: patent publication US7981939B2, “Application of 2-bromide-isovanillin for the manufacture of a medicament for anti-cancer or/and radiation/chemotherapy sensitization” (Institute of Radiation Medicine, Academy of Military …, priority 2005, dated 2011)

Legend:
[1] = test system: human cervical cancer cell line HeLa; test: MTT assay, proliferation of HeLa cells; format: cell-based; settings: for effect on the proliferation of HeLa cells: concentrations of less than 40 μmol/L, up to 72 hrs
Method: Human cervical cancer cell line HeLa, human liver cancer cell line HepG2/7221/7402, human ovarian cancer cell line HOC8/A2780, human glioma cell line BT325, lung cancer cell line A549, brain metastatic lung cancer cell line BT72 and normal human hepatic cell line LO2 were all grown in DMEM liquid medium supplemented with 10% newborn calf serum. Human leukemia cell line Jurkat was grown in 1640 medium supplemented with 10% newborn calf serum. The above cell lines were cultured in a CO2 incubator at 5% CO2 at 37° C.
By way of example, human cervical cancer cell line HeLa was used to study the effect of vanillin on the proliferation of cancer cells by MTT assay. Specifically, human cervical cancer cells HeLa were seeded into a 96-well plate at a density of 5×10^3 cells/well, and were divided into four groups. To each of the groups vanillin was added at a concentration of 0, 100, 250 or 500 μmol/L, respectively, and was allowed to grow for 4 days. Using the MTT assay, the optical density (OD) values at 490 nm were measured and recorded every day, wherein the OD value is indicative of the number of cells, i.e., the proliferation of cells.
By way of example, human cervical cancer cell line HeLa was used to study the effect of several vanillin derivatives for 72 hrs on the proliferation of cancer cells by MTT assay. Specifically, human cervical cancer cells HeLa were seeded into a 96-well plate at a density of 5×10^3 cells/well, and were divided into four groups. To each of the groups were added increasing concentrations (0, 10, 20, 30, 40 μmol/L) of vanillin derivatives ethyl vanillin (Code No. VAND3206), 4-methoxy vanillin (Code No. VAND3207), isovanillin (Code No. VAND3209) and 2-bromo-isovanillin (Code No. VAND3208), and the cells were cultured for 72 hrs. Using the MTT assay, the optical density (OD) values at 490 nm were measured and recorded every day, wherein the OD value is indicative of the number of cells, i.e., the proliferation of cells.
By way of example, human cervical cancer cell line HeLa was used to study the inhibitory effect of 2-bromo-isovanillin at different concentrations for different periods of time on the proliferation of cancer cells by MTT assay. Specifically, human cervical cancer cells HeLa were seeded into a 96-well plate at a density of 5×10^3 cells/well, and were divided into […]. To each of the groups 2-bromo-isovanillin was added at a concentration of 0, 10, 20, 30, 40 or 50 μmol/L, and was cultured for 14 days, respectively. Using the MTT assay, the optical density (OD) values at 490 nm were measured and recorded every day, wherein the OD value is indicative of the number of cells, i.e., the proliferation of cells.

[2] = target: T1, nuclear protein DNA-PKcs serine/threonine protein kinase (Homo sapiens, UniProt P78527); test: DNA-PKcs kinase activity in nuclear protein of treated HepG2 cells; format: cell-based; settings: HepG2, 100 μmol/L, 24 hrs
T1 construct: adding nuclear proteins to the solid phase reaction system; endogenous in cells; host or cells: HepG2 human liver cancer cells (nuclear protein extract)
Method: The activity of nuclear protein DNA-PKcs serine/threonine protein kinase in human liver cancer cells HepG2 treated with 0, 10, 20, 40, 100 μmol/L 2-bromo-isovanillin for 24 hrs was determined by using […] DNA dependent protein kinase assay kit (Promega), according to the manufacturer's instructions, and the treatment with 100 μmol/L vanillin for the same period of time served as control. Basically, the assay was carried out by immobilizing the phosphorylation substrate specific to DNA-PKcs, i.e., a peptide derived from p53 protein onto a cellulose membrane, adding nuclear proteins to the solid phase reaction system, isotopically labeling the substrate by phosphorylation using γ-^32P ATP, removing non-specific signals after the isotope labeling, and visualizing the kinase activity upon X-ray film developing.

inhibitory effect on DNA-PKcs kinase activity compared with 2-bromo-isovanillin [2]	Compound	effect on the proliferation of HeLa cells [1]	concentration at which proliferation of cancer cells was effectively inhibited ([1]; HeLa, 0-500 μmol/L, 4 days, OD at 490 nm)
–	COc1ccc(C=O)cc1O [VAND3209, isovanillin]	no inhibitory effect	–
–	CCOc1cc(C=O)ccc1O [ethyl vanillin]	no inhibitory effect	–
significantly weaker	COc1cc(C=O)ccc1O [vanillin]	–	above 250 μmol/L
